Measurements taken from patent US20220096516A1, “OLIGONUCLEOTIDE MOLECULE AND APPLICATION THEREOF IN TUMOR THERAPY” (Ractigen Therapeutics, priority 2019, published 2022).
d = 2'-deoxy (DNA); r = 2'-OH (RNA)

Tested on: LHPP gene
Test: High-throughput screening of saRNAs targeting LHPP promoter: LHPP mRNA by one-step RT-qPCR in Huh7 cells
Type: cell-based, human
Details: 10 nM saRNA, 72 hours, relative to control (Mock)
Summary of the method: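 Huh7 cells were transfected with 10 nM saRNA using RNAiMax and lysed 72 h later. LHPP mRNA was quantified by one-step RT-qPCR in triplicate wells. Expression was normalised to HPRT1 and TBP and given as fold change versus mock-transfected cells.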

Row | Substance | Fold of changes in relative LHPP mRNA expression level [fold] | Fold of changes in relative LHPP mRNA expression level (log2)
1 | RAG7-735: saRNA duplex; sense GGGUUUAACGCAUUGUGAUTT (SEQ ID NO: 114), antisense AUCACAAUGCGUUAAACCCTT (SEQ ID NO: 278) (sugars from the 5' end r19 d2, backbone not given here) | 1.19 | 0.25
2 | RAG7-736: saRNA duplex; sense UGGGUUUAACGCAUUGUGATT (SEQ ID NO: 131), antisense UCACAAUGCGUUAAACCCATT (SEQ ID NO: 295) (sugars from the 5' end r19 d2, backbone not given here) | 1.16 | 0.22
3 | RAG7-738: saRNA duplex; sense CCUGGGUUUAACGCAUUGUTT (SEQ ID NO: 159), antisense ACAAUGCGUUAAACCCAGGTT (SEQ ID NO: 323) (sugars from the 5' end r19 d2, backbone not given here) | 1.11 | 0.15
4 | RAG7-741: saRNA duplex; sense CCUCCUGGGUUUAACGCAUTT (SEQ ID NO: 95), antisense AUGCGUUAAACCCAGGAGGTT (SEQ ID NO: 259) (sugars from the 5' end r19 d2, backbone not given here) | 1.23 | 0.30
5 | RAG7-745: saRNA duplex; sense AAAACCUCCUGGGUUUAACTT (SEQ ID NO: 154), antisense GUUAAACCCAGGAGGUUUUTT (SEQ ID NO: 318) (sugars from the 5' end r19 d2, backbone not given here) | 1.11 | 0.15
6 | RAG7-776: saRNA duplex; sense UAGCAUCGAGUGGUAUUUUTT (SEQ ID NO: 56), antisense AAAAUACCACUCGAUGCUATT (SEQ ID NO: 220) (sugars from the 5' end r19 d2, backbone not given here) | 1.35 | 0.44
7 | RAG7-778: saRNA duplex; sense UGUAGCAUCGAGUGGUAUUTT (SEQ ID NO: 70), antisense AAUACCACUCGAUGCUACATT (SEQ ID NO: 234) (sugars from the 5' end r19 d2, backbone not given here) | 1.29 | 0.37
8 | RAG7-780: saRNA duplex; sense AAUGUAGCAUCGAGUGGUATT (SEQ ID NO: 142), antisense UACCACUCGAUGCUACAUUTT (SEQ ID NO: 306) (sugars from the 5' end r19 d2, backbone not given here) | 1.14 | 0.19
9 | RAG7-821: saRNA duplex; sense ACUCCUCCCUUUUAAUAUCTT (SEQ ID NO: 89), antisense GAUAUUAAAAGGGAGGAGUTT (SEQ ID NO: 253) (sugars from the 5' end r19 d2, backbone not given here) | 1.25 | 0.32
10 | RAG7-826: saRNA duplex; sense AGGAAACUCCUCCCUUUUATT (SEQ ID NO: 157), antisense UAAAAGGGAGGAGUUUCCUTT (SEQ ID NO: 321) (sugars from the 5' end r19 d2, backbone not given here) | 1.11 | 0.15
11 | RAG7-828: saRNA duplex; sense UGAGGAAACUCCUCCCUUUTT (SEQ ID NO: 108), antisense AAAGGGAGGAGUUUCCUCATT (SEQ ID NO: 272) (sugars from the 5' end r19 d2, backbone not given here) | 1.20 | 0.26
12 | RAG7-829: saRNA duplex; sense UUGAGGAAACUCCUCCCUUTT (SEQ ID NO: 29), antisense AAGGGAGGAGUUUCCUCAATT (SEQ ID NO: 193) (sugars from the 5' end r19 d2, backbone not given here) | 1.50 | 0.59
13 | RAG7-830: saRNA duplex; sense AUUGAGGAAACUCCUCCCUTT (SEQ ID NO: 36), antisense AGGGAGGAGUUUCCUCAAUTT (SEQ ID NO: 200) (sugars from the 5' end r19 d2, backbone not given here) | 1.45 | 0.54
14 | RAG7-832: saRNA duplex; sense CCAUUGAGGAAACUCCUCCTT (SEQ ID NO: 139), antisense GGAGGAGUUUCCUCAAUGGTT (SEQ ID NO: 303) (sugars from the 5' end r19 d2, backbone not given here) | 1.14 | 0.19
15 | RAG7-833: saRNA duplex; sense GCCAUUGAGGAAACUCCUCTT (SEQ ID NO: 138), antisense GAGGAGUUUCCUCAAUGGCTT (SEQ ID NO: 302) (sugars from the 5' end r19 d2, backbone not given here) | 1.14 | 0.20
16 | RAG7-837: saRNA duplex; sense AGGGGCCAUUGAGGAAACUTT (SEQ ID NO: 109), antisense AGUUUCCUCAAUGGCCCCUTT (SEQ ID NO: 273) (sugars from the 5' end r19 d2, backbone not given here) | 1.20 | 0.26
17 | RAG7-839: saRNA duplex; sense CGAGGGGCCAUUGAGGAAATT (SEQ ID NO: 158), antisense UUUCCUCAAUGGCCCCUCGTT (SEQ ID NO: 322) (sugars from the 5' end r19 d2, backbone not given here) | 1.11 | 0.15
18 | RAG7-844: saRNA duplex; sense GGUUCCGAGGGGCCAUUGATT (SEQ ID NO: 129), antisense UCAAUGGCCCCUCGGAACCTT (SEQ ID NO: 293) (sugars from the 5' end r19 d2, backbone not given here) | 1.17 | 0.22
19 | RAG7-846: saRNA duplex; sense AAGGUUCCGAGGGGCCAUUTT (SEQ ID NO: 11), antisense AAUGGCCCCUCGGAACCUUTT (SEQ ID NO: 175) (sugars from the 5' end r19 d2, backbone not given here) | 1.68 | 0.75
20 | RAG7-847: saRNA duplex; sense AAAGGUUCCGAGGGGCCAUTT (SEQ ID NO: 34), antisense AUGGCCCCUCGGAACCUUUTT (SEQ ID NO: 198) (sugars from the 5' end r19 d2, backbone not given here) | 1.48 | 0.56
21 | RAG7-848: saRNA duplex; sense GAAAGGUUCCGAGGGGCCATT (SEQ ID NO: 87), antisense UGGCCCCUCGGAACCUUUCTT (SEQ ID NO: 251) (sugars from the 5' end r19 d2, backbone not given here) | 1.25 | 0.32
22 | RAG7-850: saRNA duplex; sense UUGAAAGGUUCCGAGGGGCTT (SEQ ID NO: 46), antisense GCCCCUCGGAACCUUUCAATT (SEQ ID NO: 210) (sugars from the 5' end r19 d2, backbone not given here) | 1.39 | 0.47
23 | RAG7-851: saRNA duplex; sense CUUGAAAGGUUCCGAGGGGTT (SEQ ID NO: 163), antisense CCCCUCGGAACCUUUCAAGTT (SEQ ID NO: 327) (sugars from the 5' end r19 d2, backbone not given here) | 1.10 | 0.14
24 | RAG7-852: saRNA duplex; sense ACUUGAAAGGUUCCGAGGGTT (SEQ ID NO: 128), antisense CCCUCGGAACCUUUCAAGUTT (SEQ ID NO: 292) (sugars from the 5' end r19 d2, backbone not given here) | 1.17 | 0.22
25 | RAG7-853: saRNA duplex; sense AACUUGAAAGGUUCCGAGGTT (SEQ ID NO: 146), antisense CCUCGGAACCUUUCAAGUUTT (SEQ ID NO: 310) (sugars from the 5' end r19 d2, backbone not given here) | 1.14 | 0.18
26 | RAG7-879: saRNA duplex; sense GUAAAGUGUUCUCGUUUCUTT (SEQ ID NO: 40), antisense AGAAACGAGAACACUUUACTT (SEQ ID NO: 204) (sugars from the 5' end r19 d2, backbone not given here) | 1.44 | 0.53
27 | RAG7-883: saRNA duplex; sense AGAAGUAAAGUGUUCUCGUTT (SEQ ID NO: 161), antisense ACGAGAACACUUUACUUCUTT (SEQ ID NO: 325) (sugars from the 5' end r19 d2, backbone not given here) | 1.11 | 0.14
